Reference: ChEMBL document CHEMBL1201862, “PubChem BioAssay data set” (2004)
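Growth conditions: 96-well plates. Treatment: test compound, 48 hours, 5 concentrations. Analysis: linear interpolation between bracketing concentrations; unreached endpoints set to highest concentration. GI50 = concentration required for 50% inhibition of growth.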 The source made the active and inactive calls. Cut-off read from the data, not from the text of the source: active = GI50 up to about 1.1 µM and inactive = higher.

How the values were obtained:
Experiment in all cases: NCI-60 cell line screen, 48 h
[1] = tested on: NCI-H23
[2] = tested on: SK-MEL-2
[3] = tested on: SN12C
[4] = tested on: HCT-116
[5] = tested on: IGROV-1
[6] = tested on: SNB-75
[7] = tested on: DLD-1
[8] = tested on: HOP-62
[9] = tested on: DMS-273
[10] = tested on: SK-MEL-28
[11] = tested on: SW-620
[12] = tested on: SF-268
[13] = tested on: M14
[14] = tested on: OVCAR-4
[15] = tested on: CCRF-CEM
[16] = tested on: HCC 2998
[17] = tested on: CAKI-1
[18] = tested on: KM-20L2
[19] = tested on: A549
[20] = tested on: TK-10
[21] = tested on: SK-MEL-5
[22] = tested on: RXF 631
[23] = tested on: UO-31
[24] = tested on: OVCAR-3
[25] = tested on: HCT-15
[26] = tested on: RPMI-8226
[27] = tested on: M19-MEL
[28] = tested on: Malme-3M
[29] = tested on: SNB-19
[30] = tested on: HOP-92
[31] = tested on: U-251
[32] = tested on: 786-0
[33] = tested on: SF-539
[34] = tested on: SR
[35] = tested on: KM12
[36] = tested on: ACHN
[37] = tested on: NCI-H522
[38] = tested on: MOLT-4
[39] = tested on: UACC-62
[40] = tested on: SK-OV-3
[41] = tested on: SF-295
[42] = tested on: K562
[43] = tested on: NCI-H460
[44] = tested on: LXFL 529
[45] = tested on: OVCAR-8
[46] = tested on: LOX IMVI
[47] = tested on: UACC-257
[48] = tested on: COLO 205
[49] = tested on: XF498
[50] = tested on: HL-60
[51] = tested on: OVCAR-5
[52] = tested on: HT-29
[53] = tested on: HOP-18
[54] = tested on: DMS-114
[55] = tested on: NCI-H226
[56] = tested on: A498

With `CC(C)(O)[C@@H]1CC[C@@]2(C)CCC[C@H](O)[C@H]2C1` the GI50 [1] was > 100 µM (inactive), the GI50 [2] was > 100 µM (inactive) and the GI50 [3] was > 100 µM (inactive). For the same compound, the GI50 [4] was > 100 µM (inactive), the GI50 [5] was > 100 µM (inactive) and the GI50 [6] was > 100 µM (inactive). For the same compound, the GI50 [7] was > 100 µM (inactive), the GI50 [8] was > 100 µM (inactive) and the GI50 [9] was > 100 µM (inactive). For the same compound, the GI50 [10] was > 100 µM (inactive), the GI50 [11] was > 100 µM (inactive) and the GI50 [12] was > 100 µM (inactive). The GI50 [13] was > 100 µM (inactive), the GI50 [14] was > 100 µM (inactive) and the GI50 [15] was > 100 µM (inactive). The GI50 [16] was > 100 µM (inactive), the GI50 [17] was > 100 µM (inactive) and the GI50 [18] was > 100 µM (inactive). The GI50 [19] was > 100 µM (inactive), the GI50 [20] was > 100 µM (inactive) and the GI50 [21] was > 100 µM (inactive). For the same compound, the GI50 [22] was > 100 µM (inactive), the GI50 [23] was > 100 µM (inactive) and the GI50 [24] was > 100 µM (inactive). The GI50 [25] was over 100 µM, the GI50 [26] was > 100 µM (inactive) and the GI50 [27] was > 100 µM (inactive). The GI50 [28] was > 100 µM (inactive), the GI50 [29] was > 100 µM (inactive) and the GI50 [30] was > 100 µM (inactive). The GI50 [31] was > 100 µM (inactive), the GI50 [32] was > 100 µM (inactive) and the GI50 [33] was > 100 µM (inactive). For the same compound, the GI50 [34] was > 100 µM (inactive), the GI50 [35] was > 100 µM (inactive) and the GI50 [36] was > 100 µM (inactive). The GI50 [37] was > 100 µM (inactive), the GI50 [38] was > 100 µM (inactive) and the GI50 [39] was > 100 µM (inactive). For the same compound, the GI50 [40] was > 100 µM (inactive), the GI50 [41] was > 100 µM (inactive) and the GI50 [42] was > 100 µM (inactive). For the same compound, the GI50 [43] was > 100 µM (inactive), the GI50 [44] was > 100 µM (inactive) and the GI50 [45] was > 100 µM (inactive). For the same compound, the GI50 [46] was > 100 µM (inactive), the GI50 [47] was > 100 µM (inactive) and the GI50 [48] was > 100 µM (inactive). The GI50 [49] was > 100 µM (inactive), the GI50 [50] was > 100 µM (inactive) and the GI50 [51] was > 100 µM (inactive). For the same compound, the GI50 [52] was > 100 µM (inactive), the GI50 [53] was > 100 µM (inactive) and the GI50 [54] was > 100 µM (inactive). For the same compound, the GI50 [55] was > 100 µM (inactive) and the GI50 [56] was > 100 µM (inactive).
